Test results published in US20020137929A1, “1 - (3-heterocyclylphenyl) isothiourea, -isourea, -guanidine and -amidine herbicidal agents” (Intellectual Property Department, BASF Aktiengesellschaft, priority 1998, published 2002).

Assays:
[1] = system: IPOHE (Morningglory, Ivyleaf); assay: Preemergence herbicidal evaluation; type: in vivo, Ipomoea hederacea; details: rated 4-5 weeks after treatment, rating scale 0-9
Method in brief: (§1)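 Preemergence soil application of compound, sprayed in aqueous acetone at rates equivalent to about 0.0156 to 0.500 kg per hectare onto freshly sown cups. Plant response was judged by eye on a 0-9 scale four to five weeks later.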

ZEAMX (Corn, Field) = assay: Preemergence herbicidal evaluation; type: in vivo, Zea mays; details: rated 4-5 weeks after treatment, rating scale 0-9
Method in brief: as §1

CASOB (Sicklepod) [2] = assay: Preemergence herbicidal evaluation; type: in vivo, Cassia obtusifolia; details: rated 4-5 weeks after treatment, rating scale 0-9
Method in brief: as §1

GALAP (Galium) = assay: Postemergence herbicidal evaluation; type: in vivo, Galium aparine; details: postemergence
Method in brief: (§2)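 Rate range approx. 0.0156–0.500 kg/ha. Foliar application at 40 psi to ~2-week seedlings; surfactant 0.5% TWEEN 20 in 50/50 acetone/water. Evaluation 4–5 wk post-treatment by 0–9 visual injury score, means of replicate tests.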

[3] = system: SAGPY (Arrowhead (Pygmaea)); assay: Preemergence weed control under flooded paddy conditions; type: in vivo, Sagittaria pygmaea; details: rated 3-4 weeks after treatment
Method in brief: (§3)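 Seeds or propagules sown in silt loam kept flooded 1.5-3 cm; compounds in 50/50 acetone/water pipetted into flood water at about 0.0313 to 0.500 kg/ha. Greenhouse; visual 0-9 rating versus untreated control 3-4 weeks after treatment.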

[4] = system: GLXMAW (Soybean, Williams); assay: Preemergence herbicidal evaluation; type: in vivo, Glycine max, (L.) Merr. cv Williams; details: rated 4-5 weeks after treatment, rating scale 0-9
Method in brief: as §1

MOOVA (Monochoria) = assay: Preemergence weed control under flooded paddy conditions; type: in vivo, Monochoria vaginalis; details: rated 3-4 weeks after treatment
Method in brief: as §3

[5] = system: IPOHE (Morningglory, Ivyleaf); assay: Postemergence herbicidal evaluation; type: in vivo, Ipomoea hederacea; details: postemergence
Method in brief: as §2

AMBEL (Ragweed, Common) = assay: Postemergence herbicidal evaluation; type: in vivo, Ambrosia artemisifolia; details: postemergence
Method in brief: as §2

ECHCG (Barnyardgrass) = assay: Preemergence herbicidal evaluation; type: in vivo, Echinochloa crus-galli; details: rated 4-5 weeks after treatment, rating scale 0-9
Method in brief: as §1

CASOB (Sicklepod) [6] = assay: Postemergence herbicidal evaluation; type: in vivo, Cassia obtusifolia; details: postemergence
Method in brief: as §2

[7] = system: TRZAWR (Wheat, Winter, cv Riband); assay: Preemergence herbicidal evaluation; type: in vivo, Triticum aestivum; details: rated 4-5 weeks after treatment, rating scale 0-9
Method in brief: as §1

ABUTH (Velvetleaf) = assay: Preemergence herbicidal evaluation; type: in vivo, Abutilon theophrasti; details: rated 4-5 weeks after treatment, rating scale 0-9
Method in brief: as §1

C=C1SC(=Nc2cc(-n3c(=O)cc(C(F)(F)F)n(C)c3=O)c(F)cc2Cl)N(CC(=O)OCC)C1=O [Compound 154]
Preemergence herbicidal rating IPOHE ([1]; rate 0.0156 kg/ha): 0.0 | Preemergence herbicidal rating IPOHE ([1]; rate 0.0313 kg/ha): 9.0 | Preemergence herbicidal rating IPOHE ([1]; rate 0.0625 kg/ha): 9.0 | Preemergence herbicidal rating IPOHE ([1]; rate 0.1250 kg/ha): 9.0 | Preemergence herbicidal rating IPOHE ([1]; rate 0.2500 kg/ha): 9.0 | Preemergence herbicidal rating ZEAMX (ZEAMX (Corn, Field); rate 0.0156 kg/ha): 5.0 | Preemergence herbicidal rating ZEAMX (ZEAMX (Corn, Field); rate 0.0313 kg/ha): 7.0 | Preemergence herbicidal rating ZEAMX (ZEAMX (Corn, Field); rate 0.0625 kg/ha): 8.0 | Preemergence herbicidal rating ZEAMX (ZEAMX (Corn, Field); rate 0.1250 kg/ha): 9.0 | Preemergence herbicidal rating ZEAMX (ZEAMX (Corn, Field); rate 0.2500 kg/ha): 9.0 | Preemergence herbicidal rating CASOB (CASOB (Sicklepod) [2]; rate 0.0156 kg/ha): 0.0 | Preemergence herbicidal rating CASOB (CASOB (Sicklepod) [2]; rate 0.0313 kg/ha): 0.0 | Preemergence herbicidal rating CASOB (CASOB (Sicklepod) [2]; rate 0.0625 kg/ha): 9.0 | Preemergence herbicidal rating CASOB (CASOB (Sicklepod) [2]; rate 0.1250 kg/ha): 9.0 | Preemergence herbicidal rating CASOB (CASOB (Sicklepod) [2]; rate 0.2500 kg/ha): 9.0 | Herbicidal rating GALAP (GALAP (Galium); rate 0.0156 kg/ha): 3.0 | Herbicidal rating GALAP (GALAP (Galium); rate 0.0313 kg/ha): 3.0 | Herbicidal rating GALAP (GALAP (Galium); rate 0.0625 kg/ha): 4.0 | herbicidal effect rating, SAGPY ([3]; 0.0313 kg/ha): 2.0 | herbicidal effect rating, SAGPY ([3]; 0.0625 kg/ha): 4.0 | herbicidal effect rating, SAGPY ([3]; 0.1250 kg/ha): 5.0 | herbicidal effect rating, SAGPY ([3]; 0.2500 kg/ha): 6.0 | Preemergence herbicidal rating GLXMAW ([4]; rate 0.0156 kg/ha): 0.0 | Preemergence herbicidal rating GLXMAW ([4]; rate 0.0313 kg/ha): 2.0 | Preemergence herbicidal rating GLXMAW ([4]; rate 0.0625 kg/ha): 5.0 | Preemergence herbicidal rating GLXMAW ([4]; rate 0.2500 kg/ha): 8.0 | herbicidal effect rating, MOOVA (MOOVA (Monochoria); 0.0313 kg/ha): 6.0 | herbicidal effect rating, MOOVA (MOOVA (Monochoria); 0.0625 kg/ha): 7.0 | herbicidal effect rating, MOOVA (MOOVA (Monochoria); 0.1250 kg/ha): 8.0 | herbicidal effect rating, MOOVA (MOOVA (Monochoria); 0.2500 kg/ha): 9.0 | Herbicidal rating IPOHE ([5]; rate 0.0156 kg/ha): 9.0 | Herbicidal rating IPOHE ([5]; rate 0.0313 kg/ha): 9.0 | Herbicidal rating IPOHE ([5]; rate 0.0625 kg/ha): 9.0 | Herbicidal rating AMBEL (AMBEL (Ragweed, Common); rate 0.0156 kg/ha): 3.0 | Herbicidal rating AMBEL (AMBEL (Ragweed, Common); rate 0.0313 kg/ha): 9.0 | Herbicidal rating AMBEL (AMBEL (Ragweed, Common); rate 0.0625 kg/ha): 9.0 | Preemergence herbicidal rating ECHCG (ECHCG (Barnyardgrass); rate 0.0156 kg/ha): 0.0 | Preemergence herbicidal rating ECHCG (ECHCG (Barnyardgrass); rate 0.0313 kg/ha): 4.0 | Preemergence herbicidal rating ECHCG (ECHCG (Barnyardgrass); rate 0.0625 kg/ha): 9.0 | Preemergence herbicidal rating ECHCG (ECHCG (Barnyardgrass); rate 0.1250 kg/ha): 9.0 | Preemergence herbicidal rating ECHCG (ECHCG (Barnyardgrass); rate 0.2500 kg/ha): 9.0 | Herbicidal rating CASOB (CASOB (Sicklepod) [6]; rate 0.0156 kg/ha): 0.0 | Herbicidal rating CASOB (CASOB (Sicklepod) [6]; rate 0.0313 kg/ha): 0.0 | Herbicidal rating CASOB (CASOB (Sicklepod) [6]; rate 0.0625 kg/ha): 1.0 | Preemergence herbicidal rating TRZAWR ([7]; rate 0.0156 kg/ha): 0.0 | Preemergence herbicidal rating TRZAWR ([7]; rate 0.0313 kg/ha): 2.0 | Preemergence herbicidal rating TRZAWR ([7]; rate 0.0625 kg/ha): 8.0 | Preemergence herbicidal rating TRZAWR ([7]; rate 0.1250 kg/ha): 8.0 | Preemergence herbicidal rating TRZAWR ([7]; rate 0.2500 kg/ha): 9.0 | Preemergence herbicidal rating ABUTH (ABUTH (Velvetleaf); rate 0.0156 kg/ha): 9.0 | Preemergence herbicidal rating ABUTH (ABUTH (Velvetleaf); rate 0.0313 kg/ha): 9.0 | Preemergence herbicidal rating ABUTH (ABUTH (Velvetleaf); rate 0.0625 kg/ha): 9.0 | Preemergence herbicidal rating ABUTH (ABUTH (Velvetleaf); rate 0.1250 kg/ha): 9.0 | Preemergence herbicidal rating ABUTH (ABUTH (Velvetleaf); rate 0.2500 kg/ha): 9.0

Cn1c(C(F)(F)F)cc(=O)n(-c2cc(N=C3SCC(=O)N3Cc3cc(Cl)cc(Cl)c3)c(Cl)cc2F)c1=O [Compound 150, 3-{4-Chloro-5-{[3-(3,5-dichlorobenzyl)-4-oxo-2-thiazolidinylidene]amino}-2-fluorophenyl}-1-methyl-6-(trifluoromethyl)-2,4(1H,3H)-pyrimidinedione]
Preemergence herbicidal rating IPOHE ([1]; rate 0.0313 kg/ha): 0.0 | Preemergence herbicidal rating IPOHE ([1]; rate 0.0625 kg/ha): 0.0 | Preemergence herbicidal rating IPOHE ([1]; rate 0.1250 kg/ha): 9.0 | Preemergence herbicidal rating IPOHE ([1]; rate 0.2500 kg/ha): 9.0 | Preemergence herbicidal rating ZEAMX (ZEAMX (Corn, Field); rate 0.0313 kg/ha): 0.0 | Preemergence herbicidal rating ZEAMX (ZEAMX (Corn, Field); rate 0.0625 kg/ha): 1.0 | Preemergence herbicidal rating ZEAMX (ZEAMX (Corn, Field); rate 0.1250 kg/ha): 2.0 | Preemergence herbicidal rating ZEAMX (ZEAMX (Corn, Field); rate 0.2500 kg/ha): 1.0 | Preemergence herbicidal rating CASOB (CASOB (Sicklepod) [2]; rate 0.0313 kg/ha): 0.0 | Preemergence herbicidal rating CASOB (CASOB (Sicklepod) [2]; rate 0.0625 kg/ha): 2.0 | Preemergence herbicidal rating CASOB (CASOB (Sicklepod) [2]; rate 0.1250 kg/ha): 1.0 | Preemergence herbicidal rating CASOB (CASOB (Sicklepod) [2]; rate 0.2500 kg/ha): 2.0 | Herbicidal rating GALAP (GALAP (Galium); rate 0.0156 kg/ha): 1.0 | Herbicidal rating GALAP (GALAP (Galium); rate 0.0313 kg/ha): 2.0 | Herbicidal rating GALAP (GALAP (Galium); rate 0.0625 kg/ha): 4.0 | herbicidal effect rating, SAGPY ([3]; 0.0313 kg/ha): 0.0 | herbicidal effect rating, SAGPY ([3]; 0.0625 kg/ha): 2.0 | herbicidal effect rating, SAGPY ([3]; 0.1250 kg/ha): 2.0 | herbicidal effect rating, SAGPY ([3]; 0.2500 kg/ha): 2.0 | Preemergence herbicidal rating GLXMAW ([4]; rate 0.0313 kg/ha): 0.0 | Preemergence herbicidal rating GLXMAW ([4]; rate 0.0625 kg/ha): 0.0 | Preemergence herbicidal rating GLXMAW ([4]; rate 0.1250 kg/ha): 0.0 | Preemergence herbicidal rating GLXMAW ([4]; rate 0.2500 kg/ha): 2.0 | herbicidal effect rating, MOOVA (MOOVA (Monochoria); 0.0313 kg/ha): 6.0 | herbicidal effect rating, MOOVA (MOOVA (Monochoria); 0.0625 kg/ha): 9.0 | herbicidal effect rating, MOOVA (MOOVA (Monochoria); 0.1250 kg/ha): 9.0 | herbicidal effect rating, MOOVA (MOOVA (Monochoria); 0.2500 kg/ha): 9.0 | Herbicidal rating IPOHE ([5]; rate 0.0156 kg/ha): 9.0 | Herbicidal rating IPOHE ([5]; rate 0.0313 kg/ha): 9.0 | Herbicidal rating IPOHE ([5]; rate 0.0625 kg/ha): 9.0 | Herbicidal rating AMBEL (AMBEL (Ragweed, Common); rate 0.0156 kg/ha): 7.0 | Herbicidal rating AMBEL (AMBEL (Ragweed, Common); rate 0.0313 kg/ha): 9.0 | Herbicidal rating AMBEL (AMBEL (Ragweed, Common); rate 0.0625 kg/ha): 9.0 | Preemergence herbicidal rating ECHCG (ECHCG (Barnyardgrass); rate 0.0313 kg/ha): 0.0 | Preemergence herbicidal rating ECHCG (ECHCG (Barnyardgrass); rate 0.0625 kg/ha): 0.0 | Preemergence herbicidal rating ECHCG (ECHCG (Barnyardgrass); rate 0.1250 kg/ha): 2.0 | Preemergence herbicidal rating ECHCG (ECHCG (Barnyardgrass); rate 0.2500 kg/ha): 4.0 | Herbicidal rating CASOB (CASOB (Sicklepod) [6]; rate 0.0156 kg/ha): 1.0 | Herbicidal rating CASOB (CASOB (Sicklepod) [6]; rate 0.0313 kg/ha): 3.0 | Herbicidal rating CASOB (CASOB (Sicklepod) [6]; rate 0.0625 kg/ha): 3.0 | Preemergence herbicidal rating TRZAWR ([7]; rate 0.0313 kg/ha): 0.0 | Preemergence herbicidal rating TRZAWR ([7]; rate 0.0625 kg/ha): 0.0 | Preemergence herbicidal rating TRZAWR ([7]; rate 0.1250 kg/ha): 1.0 | Preemergence herbicidal rating TRZAWR ([7]; rate 0.2500 kg/ha): 1.0 | Preemergence herbicidal rating ABUTH (ABUTH (Velvetleaf); rate 0.0313 kg/ha): 0.0 | Preemergence herbicidal rating ABUTH (ABUTH (Velvetleaf); rate 0.0625 kg/ha): 4.0 | Preemergence herbicidal rating ABUTH (ABUTH (Velvetleaf); rate 0.1250 kg/ha): 9.0 | Preemergence herbicidal rating ABUTH (ABUTH (Velvetleaf); rate 0.2500 kg/ha): 9.0
